Measurements taken from patent publication US5081284A, “Proteinase inhibitor” (Suntory Limited, priority 1989, dated 1992).
Like-named read-outs stand apart in the source and are kept apart here.

Tests used:
[1] = target: cathepsin B (Bos taurus, UniProt P07688); assay: Anti-cathepsin activity (cathepsin B, benzyloxycarbonyl-L-lysine-p-nitrophenyl ester substrate); type: biochemical, bovine
Procedure: A mixture of a test compound of the present invention and an acetate buffer solution (25 mM, pH=5.1, with 1 mM EDTA, 3.15 ml) containing a substrate (benzyloxycarbonyl-L-lysine-p-nitrophenyl ester, 0.114 mg) was preincubated at 30° C. for 1 minute. To the mixture, a solution (0.05 ml) of cathepsin B (derived from bovine spleen; product of Sigma; 0.05 units) in the acetate buffer was added to start the reaction. Immediately after the start of reaction, the change in absorbance at 326 nm was measured and the inhibitory activity of the test compound was determined by comparison with the control solution.

[2] = target: T1, papain (Carica papaya, UniProt P00784); assay: Anti-papain activity (casein hydrolysis, Lowry-Folin method); type: biochemical
T1 sequence (P00784 134-345): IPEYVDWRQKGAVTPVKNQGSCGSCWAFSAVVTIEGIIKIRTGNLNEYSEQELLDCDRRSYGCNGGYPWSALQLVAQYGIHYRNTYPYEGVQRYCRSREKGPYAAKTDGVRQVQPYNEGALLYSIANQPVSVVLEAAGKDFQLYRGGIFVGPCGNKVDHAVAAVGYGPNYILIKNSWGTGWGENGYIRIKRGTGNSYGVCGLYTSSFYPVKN
Procedure: (§1) A mixture of a test compound of the present invention, papain (0.015 units) and a citrate buffer solution (20 mM, pH=6.2,1 ml) containing EDTA (0.88 mg) was preincubated at 30° C. for 5 minutes and a substrate solution (1 ml) was added to start the reaction. The substrate was a 1% solution of casein in the citrate buffer. The reaction was performed at 30° C. for 20 minutes. The reaction was quenched by adding 6.5% trichloroacetic acid (3 ml) to the reaction solution. The amount of casein that had been hydrolyzed enzymatically in the trichloroacetic acid soluble fraction was measured by the Lowry-Folin method and the inhibitory activity of the test compound was determined by comparison with the control solution.
as §1, with “pH=6.2, 1” for “pH=6.2,1”

[3] = target: T2, calpain I (Homo sapiens, UniProt P07384); assay: Anti-calpain activity, calpain I (casein hydrolysis, Ross-Schatz method); type: biochemical
T2 sequence (P07384 1-714): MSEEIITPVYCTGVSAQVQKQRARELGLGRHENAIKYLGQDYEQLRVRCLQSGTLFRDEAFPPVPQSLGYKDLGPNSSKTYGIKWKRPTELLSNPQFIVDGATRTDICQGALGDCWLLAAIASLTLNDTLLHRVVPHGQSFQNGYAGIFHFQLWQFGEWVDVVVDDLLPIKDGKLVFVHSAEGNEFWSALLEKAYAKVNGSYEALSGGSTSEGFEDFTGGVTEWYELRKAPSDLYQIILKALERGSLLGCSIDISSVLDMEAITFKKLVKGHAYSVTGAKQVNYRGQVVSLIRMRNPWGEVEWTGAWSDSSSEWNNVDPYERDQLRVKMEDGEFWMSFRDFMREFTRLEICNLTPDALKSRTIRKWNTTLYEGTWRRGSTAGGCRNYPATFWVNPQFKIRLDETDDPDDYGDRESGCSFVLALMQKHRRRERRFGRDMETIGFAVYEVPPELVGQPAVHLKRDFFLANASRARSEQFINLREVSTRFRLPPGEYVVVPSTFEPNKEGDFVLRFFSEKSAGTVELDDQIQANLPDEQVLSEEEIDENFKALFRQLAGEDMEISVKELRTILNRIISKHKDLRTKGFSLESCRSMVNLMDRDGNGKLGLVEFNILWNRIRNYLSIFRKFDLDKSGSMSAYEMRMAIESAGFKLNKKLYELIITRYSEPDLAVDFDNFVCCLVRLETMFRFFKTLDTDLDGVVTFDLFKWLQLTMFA
T2 sequence (P04632 1-268 partner): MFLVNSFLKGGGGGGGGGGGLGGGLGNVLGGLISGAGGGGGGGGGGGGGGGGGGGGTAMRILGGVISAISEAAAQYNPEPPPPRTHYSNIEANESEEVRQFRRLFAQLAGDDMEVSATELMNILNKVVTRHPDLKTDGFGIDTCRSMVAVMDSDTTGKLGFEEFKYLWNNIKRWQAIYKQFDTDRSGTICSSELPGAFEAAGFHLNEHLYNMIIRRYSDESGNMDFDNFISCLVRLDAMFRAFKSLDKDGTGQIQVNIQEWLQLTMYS

[4] = target: T3, calpain II (Homo sapiens, UniProt P17655); assay: Anti-calpain activity, calpain II (casein hydrolysis, Ross-Schatz method); type: biochemical
T3 sequence (P17655 1-700): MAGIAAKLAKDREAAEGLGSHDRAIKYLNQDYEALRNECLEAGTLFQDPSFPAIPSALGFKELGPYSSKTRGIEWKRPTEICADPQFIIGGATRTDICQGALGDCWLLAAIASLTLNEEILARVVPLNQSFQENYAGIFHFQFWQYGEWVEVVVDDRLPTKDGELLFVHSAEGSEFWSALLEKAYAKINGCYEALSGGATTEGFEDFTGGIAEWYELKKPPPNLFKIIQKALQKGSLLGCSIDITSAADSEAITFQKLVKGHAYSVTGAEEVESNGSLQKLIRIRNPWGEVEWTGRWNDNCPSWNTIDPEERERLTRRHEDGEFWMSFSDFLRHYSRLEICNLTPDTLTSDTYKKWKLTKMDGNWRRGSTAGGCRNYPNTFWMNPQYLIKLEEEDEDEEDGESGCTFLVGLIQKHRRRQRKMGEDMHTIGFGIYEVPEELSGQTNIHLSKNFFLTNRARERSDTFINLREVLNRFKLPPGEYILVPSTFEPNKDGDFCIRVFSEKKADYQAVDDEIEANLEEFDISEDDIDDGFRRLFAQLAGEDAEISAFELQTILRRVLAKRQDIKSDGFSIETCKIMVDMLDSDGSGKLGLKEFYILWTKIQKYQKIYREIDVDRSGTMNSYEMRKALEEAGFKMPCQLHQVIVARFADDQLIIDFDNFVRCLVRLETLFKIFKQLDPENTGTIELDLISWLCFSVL
T3 sequence (P04632 1-268 partner): T2 sequence (P04632 1-268 partner)

[5] = Table 8 (Example 29), pH 5.1, 30° C., from bovine spleen, read-out: Inhibitory activity toward cathepsin B, IC50
[6] = Table 5 (Example 29), pH 6.2, 30° C., 20 minutes, casein, read-out: Inhibitory activity toward papain, IC50
[7] = Table 6 (Example 29), pH 7.5, 30° C., 30 minutes, casein, read-out: Inhibitory activity toward calpain I, IC50
[8] = Table 7 (Example 29), pH 7.5, 30° C., 30 minutes, casein, read-out: Inhibitory activity toward calpain II, IC50

**Q.** Which results are given for `CCCC[C@@H](C=O)NC(=O)[C@H](CC(C)C)NC(=O)OCc1ccc(OC)cc1` [Example 7, N-(p-methoxybenzyloxycarbonyl)-L-leucyl-L-norleucinal]?
**A.** IC50 [1, 5]: 150 nM; IC50 [2, 6]: 250 nM; IC50 [3, 7]: 100 nM; IC50 [4, 8]: 130 nM

**Q.** For `CCCC[C@@H](C=O)NC(=O)[C@H](CC(C)C)NC(=O)OCc1ccc([N+](=O)[O-])cc1` [Example 8, N-(p-nitrobenzyloxycarbonyl)-L-leucyl-L-norleucinal], which IC50 [1, 5] is on record?
**A.** 99 nM

**Q.** What about the IC50 [2, 6] of the same molecule?
**A.** 31 nM

**Q.** And the IC50 [3, 7]?
**A.** 92 nM

**Q.** And the IC50 [4, 8]?
**A.** 130 nM

**Q.** How did the IC50 [1, 5] turn out when `CCCC[C@@H](C=O)NC(=O)[C@H](CC(C)C)NC(=O)OCc1ccccc1Cl` [Example 9, N-(o-chlorobenzyloxycarbonyl)-L-leucyl-L-norleucinal] was run?
**A.** 140 nM

**Q.** And the IC50 [2, 6]?
**A.** 160 nM

**Q.** What about the IC50 [3, 7] of the same molecule?
**A.** 110 nM

**Q.** What about the IC50 [4, 8] of the same molecule?
**A.** 130 nM

**Q.** How did the IC50 [1] turn out when `CCCC[C@@H](C=O)NC(=O)[C@H](CC(C)C)NP(=S)(c1ccccc1)c1ccccc1` [Example 14, N-diphenylphosphonothioyl-L-leucyl-L-norleucinal] was run?
**A.** 79 nM

**Q.** And the IC50 [2]?
**A.** 170 nM

**Q.** And the IC50 [3]?
**A.** 90 nM

**Q.** And the IC50 [4]?
**A.** 120 nM
